Where two headings read alike, the source gives them in different places.
How the values were obtained:
[1] = Plasma protein binding, equilibrium dialysis; type: in vitro ADME, human; conditions: pH 7.4; human plasma, after 6 hours
Experimental: This allows an assessment of the free drug concentration available to distribute into the tissues and interact with the target. The extent to which a compound binds to the constituents of blood plasma can influence drug distribution. […] page 10: In vitro Absorption, Distribution and Metabolism studies General note: These studies were performed by Contract Research Organisation (CRO) Pharmaron. The methodology provided within the ESI is published within the express permission of this organisation. The percentage of a compound recovered during the […] limitations such as unintended potential non-specific binding events to experimental equipment, solubility issues, etc. Protein Binding measurements in human plasma by using equilibrium dialysis: The fraction unbound in human plasma (P-KB, Ltd People's hospital of Shandong) was measured using 96-well Equilibrium Dialysis Plate (HTDialysis LLC, Gales Ferry, CT). Human plasma containing 5 μM test compound was dialysed against dialysis buffer (PBS, pH 7.4) with initial samples taken to allow for assessment of plasma stability and recovery before the plate was incubated for 6 hours at 37°C at 5% CO2. Samples were removed at 6 hours, and all samples were matrix matched and quenched with acetonitrile containing internal standard. Samples were centrifuged at 3,220g for 30 minutes to precipitate protein and enable sampling of supernatant prior to appropriate dilution for liquid chromatography mass-spectrometry (LC-MS/MS) analysis. Samples were analysed using a Shimadzu Nexera LC Binary Gradient LC-30AD (Shimadzu Inc, Kyoto), coupled to a Sciex 6500+ (AB Inc., Illinois). Separation was achieved using a XSelect HSS T3 (2.5μm, 2.1 x 50 mm) (Waters Ltd., Wilmslow) column at a temperature of 40°C and a binary mobile phase gradient at a flow rate of 0.8 mL/min. Initial LC conditions comprised of […] was ramped to 98% B at 0.5 min, held for 0.4 min and then immediately returned to initial conditions. Sample analysis was by electrospray ionisation in combined with multiple reaction monitoring in positive ionisation mode. The ionisation voltage was +5500 V. Kinetic Solubility Determination in PBS pH 7.4: The stock solutions of test and control compounds were prepared in DMSO at 10 mM. From […] These solutions were then shaken at 1100 rpm for 2 hours at 25°C. Following incubation, the samples were filtered using a vacuum manifold. The filtrate was analysed and quantified against a standard of known concentration using liquid chromatography mass- spectrometry (LC-MS/MS). Samples were analysed using a Shimadzu Nexera LC Binary Gradient LC-30AD (Shimadzu Inc, Kyoto), coupled to a Sciex 4500 mass spectrometer (AB Inc., Illinois). Separation of […] Wilmslow) at a temperature of 40°C and a binary mobile phase gradient at a flow rate of 0.8 mL/min. […] This was ramped to 98% solvent B at 0.5 minutes, held for 0.4 minutes and then immediately returned to initial conditions. Sample analysis was by electrospray ionisation combined with multiple reaction monitoring in positive ion mode. The ionspray voltage was […]. 10

[2] = Bi-directional permeability in Caco-2 cell line; type: in vitro ADME; conditions: human; for Papp B→A at 2 h, 5 µM: Caco-2, pH 7.4, 5 µM, basolateral to apical; for recovery at 2 h, 5 µM: Caco-2, pH 7.4, after 2 hours; for Papp A→B at 2 h, 5 µM: apical to basolateral
Text: Next, to gauge the suitability of SSAs for oral dosing, 9 was subjected to a Caco-2 permeability assay which is used to both predict human intestinal permeability and investigate drug efflux, predicting in vivo compound absorption. This assay allows assessment of a compound's ability to undergo transport from the apical to the basolateral (A–B) compartments of the cell monolayer and vice versa (B–A). […] This is likely to result in poor absorption when dosed orally and therefore further development would be necessary for these agents to become suitable for oral administration. […]
The ionspray voltage was 5500V.
Bi-directional Permeability in Caco-2 Cell Line:
The bi-directional permeability in Caco-2 cell lines was determined by seeding cells onto an HTS Transwell plate. Cells were cultivated for 14-18 days in a cell culture incubator at 37°C, 5% CO2, 95% relative humidity. Cell culture medium was replaced every other day. To assess monolayer integrity the transepithelial electrical resistance (TEER) across the monolayer was measured using Millicell Epithelial volt-ohm meter prior to assay and Lucifer yellow (LY) fluorescence measurement post-assay.
Test compound was prepared in DMSO and diluted in Hank’s Balanced Saline Solution (HBSS, pH 7.4) to a final concentration of 5 µM. Compound was added to the donor compartment of the transwell plate for both apical to basolateral (A>B) and basolateral to apical (B>A) measurements, with blank HBSS being added to the receiver compartment. The transwell plate was then incubated at 37°C, 5% CO2 for 2 hours.
Samples were taken at T=0 and T=2 hours determine the concentration of initial donor sample, and the concentration of receiver and donor wells post-incubation, respectively.
The samples were quenched with solvent containing internal standard (IS). The supernatant was mixed with an appropriate volume of ultra-pure water before LC-MS/MS analysis.
Samples were analysed using a Shimadzu Nexera LC Binary Gradient LC-30AD (Shimadzu Inc, Kyoto), coupled to a Sciex 6500+ (AB Inc., Illinois). Separation of compounds was achieved using a HALO 90Å biphenyl (2.7µm,2.1x50mm) (Advanced Materials Technology, Wilmington) column at a temperature of 40°C. A binary mobile phase gradient at a flow rate of 0.7 mL/min was used. Initial LC conditions comprised of 95% solvent A (0.1% formic acid in water) and 5% solvent B (0.1% formic acid in acetonitrile). This was ramped to 95% solvent B at 0.7 minutes, held for 0.5 minutes and then immediately returned to initial conditions. Sample analysis was by electrospray ionisation combined with multiple reaction monitoring in positive ion mode. The ion spray voltage was 5500V.
In vitro Absorption, Distribution and Metabolism results
Table S1 – Result from solubility assays performed in PBS pH 7.4 for SSA 9.
Table S2 – Summary of results from Caco-2 permeability assays for SSA 9. Papp is given as […]
cm/s. A = apical; B = basolateral. Recovery = % SSA recovered from the assay after 2 hours.
ID Papp (A-B) % Recovery Papp (B-A) % Recovery Efflux Ratio
Table S3 – Summary of results from human plasma protein binding assays for SSA 9. % Bound = % of SSA bound to the plasma proteins after 6 hours incubation at 37 °C. Low % […]
= > 99 %. % Recovery = % SSA recovered from the assay after 6 hours.
ID % Bound % Recovery % Stability
Table S4 – Summary of results from mouse, rat and human microsomal stability assays for SSA 9. The in vitro half-life (t1/2) and microsomal intrinsic clearance (CLint) were calculated from the elimination rate (k, the slope of the natural log of concentration verses time curve), assuming first order kinetics, using the formulae t1/2 = 0.693/-k and CLint = 0.693/t1/2 […]. This compound would be classed as a low clearance compound in all three species. […]

[3] = test system: A2780 CisR cisplatin resistant ovarian cancer cells; assay: GI50 determination, SRB assay; type: cell-based, human; conditions: 96 hours; read-out: Mean GI50 (μM) A2780 CisR SRB Assays
Experimental: (§1) GI50 determination assays
(§2) Cell culture: The RPE-1 retinal pigment epithelial, A2780 human ovarian carcinoma, and A2780 CisR cisplatin resistant human ovarian carcinoma cell lines were donated with thanks from the Institute of Cancer Research. The A2780 and A2780 CisR cell lines were cultured in IMDM supplemented with 10 % FBS at 37 °C and 5 % CO2, while the RPE-1 cell line was cultured in a 1:1 mixture of Dulbecco's Modified Eagle Medium and Ham’s F-12 Nutrient Mixture (DMEM/F-12) at 37 °C and 5 % CO2.
(§3) SRB assay: Cells were seeded into 96-well plates at 800 cells per well/cpw (A2780), 1600 cpw (A2780 CisR) or 400 cpw (RPE-1) in cell culture medium and cultured for 48 hours followed by addition of each compound over an eight-point concentration range (each concentration in triplicate). Plates were then cultured for a further 96 hours, after which the cell culture […]
(§4) medium was removed from each well and the cells fixed with addition of 70 µL/well of 10 % (w/v) trichloroacetic acid (TCA) in distilled water followed by incubation for 30 minutes at RT.
(§5) Each plate was then washed with distilled water five times before addition of 70 µL SRB dye (0.4 % (w/v) SRB dye (ThermoFisher Scientific, USA) solubilised in 1 % (v/v) acetic acid/ dH2O) and incubat ed for 30 minutes at RT, followed by washing three times with 1 % (v/v) acetic acid and drying in a 37 °C oven overnight. Once dry, 100 μl of 10 mM Tris -base (ThermoFisher Scientific, USA) was added to each well and plates put on a microplate shaker for 10 minutes at 200 rpm to solubilize the dye. Absorbance values were then read at wavelength 490 nm on a Victor X4 multi-label plate reader (PerkinElmer Life Sciences, USA), data analysed using Microsoft Excel and graphs produced using GraphPad Prism 9.0 and the GI50 value calculated.
(§6) Solutions and compo und preparation: All solvents and starting materials were purchased from known chemical suppliers. Compound stock solutions were prepared in DMSO. Buffer […]
(§7) 500 mM. Buffer B consisted of Na2SO4 (167 mM) and NaOAc (5 mM) with a pH of 5.5 and an ionic strength of 500 mM.
(§8) Vesicle formation: Giant unilamellar Vesicles (GUVS) were prepared through the electro formation method using a Nanion VesiclePrepPro. A solution of 1,2-diphytanoyl-sn-glycero-3-phosphocholine (DPhPC) (10 mM) with 10 % cholesterol in chloroform (20 µL) was deposited onto an ITO coated glass surface (surface coated glass slide) and allowed to evaporate to create a dehydrated thin lipid film. A greased O-ring was then placed around the dehydrated lipid film to create a seal. This volume was then filled with a sucrose solution (275 µL, 200 mM) and then sealed with a second ITO coated glass slide. An AC current (3 V/5 Hz) was then applied. After 2 hrs, the voltage and frequency were reduced in steps over 30 mins to 1.6 V/1 Hz and held for 1 hr before being reduced to 0 V/0 Hz over a further 30 min […]
(§9) Patch clamp measurements: Experiments were performed using a Port-a-Patch system (Nanion Technologies) with borosilicate glass chips that contain an aperture diameter of approximately 1 µm. Buffer A (5 µL) was placed on the underside of the chip over the aperture, The chip was then placed into the port-a-patch system. Buffer A (15 µL) was then added to the top of the chip and 5 µL of the GUV stock solution added. The GUVS were the positioned over the aperture in the chip by application of negative pressure (-30 mbar).
(§10) When a GUV is positioned over the aperture in the chip, it bursts, leaving a planar bilayer as a seal. The negative pressure is then removed, leaving the planar bilayer in place over the aperture. The external buffer A was the exchanged with buffer B, through four simultaneous […]
(§11) buffer exchanges (4 x 15 µL). […]
(§12) = 30 s, to give a final experimental concentration of 0.1 – 1 mM as appropriate. The number of sweeps was set to 1000, the sweep interval to 0.00 s, sample interval to 1.00 ms and the protocol was run for a total of 5 mins. Each experiment was repeated a minimum of three time to ensure reproducibility.

[4] = test system: A2780 ovarian cancer cells; assay: GI50 determination, SRB assay; type: cell-based, human; conditions: 96 hours; read-out: Mean GI50 (μM) A2780 SRB Assays
Experimental: as §1, §2, §3, §4, §5, §6, §7, §8, §9, §10, §11, §12

RPE-1 cells = assay: GI50 determination, SRB assay; type: cell-based, human; conditions: 96 hours; read-out: Mean GI50 (μM) RPE-1 SRB Assays
Experimental: as §1, §2, §3, §4, §5, §6, §7, §8, §9, §10, §11, §12

SMILES | Papp B→A at 2 h, 5 µM [2] [×10⁻⁶ cm/s] | recovery at 2 h, 5 µM ([2]; read-out: Recovery (%) AP-BL) [%] | recovery at 2 h, 5 µM ([2]; read-out: Recovery (%) BL-AP) [%] | Papp A→B at 2 h, 5 µM ([2]; Caco-2, pH 7.4) [×10⁻⁶ cm/s] | GI50 [3] [µM] | GI50 [4] [µM] | GI50 (RPE-1 cells) [µM] | further results
CC(=O)N1CCN(c2ccc(OCC3COC(Cn4ccnc4)(c4ccc(Cl)cc4Cl)O3)cc2)CC1 (centres unmarked) [Ketoconazole, reference compound] | – | – | – | – | – | – | – | recovery at 6 h, 5 µM [1]: 96.6%
COCCc1ccc(OCC(O)CNC(C)C)cc1 (centres unmarked) [Metoprolol] | 26.4 | 108 | 99 | 28.4 | – | – | – | efflux ratio at 2 h, 5 µM ([2]; Caco-2, pH 7.4, Caco-2): 0.93
C[C@H]1O[C@@H](O[C@H]2[C@@H](O)C[C@H](O[C@H]3[C@@H](O)C[C@H](O[C@H]4CC[C@@]5(C)[C@H](CC[C@@H]6[C@@H]5C[C@@H](O)[C@]5(C)[C@@H](C7=CC(=O)OC7)CC[C@]65O)C4)O[C@@H]3C)O[C@@H]2C)C[C@H](O)[C@@H]1O [Digoxin] | 18.7 | 95.9 | 99.2 | 0.42 | – | – | – | efflux ratio at 2 h, 5 µM ([2]; Caco-2, pH 7.4): 45.6
N.N.[Cl][Pt][Cl] [Cisplatin, cisplatin, reference compound] | – | – | – | – | 10.8 | 1.09 | 6.25 | –
CCCC[N+](CCCC)(CCCC)CCCC [TBACl, reference compound] | – | – | – | – | 219 | 114 | 532 | –

— paper PMC12973313 (Chemical Science, 2026)
